Active and inactive are the calls of the source. The rule behind the calls is not given here. Numbered stars: 1 amine (or outer) side, 2 acyl side, 3 side chain; on linkers, the order of the positions; unused ones are H or OH. Bridge positions count the residues as written; N and C are the ends. Peptide text beside a SMILES is read from it. X1 = CC(C)(CC(=O)[*:1])S[*:2]
Columns and labels:
Rattus norvegicus = test: Antidiuretic acitivity in water-loaded Wistar rat assessed as inhibition of AVP-mediated decrease in urine flow at 100 ug/kg, iv; assay type: functional, organism-based
[1] = target: Vasopressin V1a receptor (Rattus norvegicus) (UniProt P30560); test: Antagonist activity at vasopressin V1a receptor in rat thoracic aorta assessed as inhibition of AVP-induced vascular smooth muscle contraction at 59 uM; assay type: tissue-based
Sequence of Vasopressin V1a receptor (Rattus norvegicus) (P30560 whole entry, looked up): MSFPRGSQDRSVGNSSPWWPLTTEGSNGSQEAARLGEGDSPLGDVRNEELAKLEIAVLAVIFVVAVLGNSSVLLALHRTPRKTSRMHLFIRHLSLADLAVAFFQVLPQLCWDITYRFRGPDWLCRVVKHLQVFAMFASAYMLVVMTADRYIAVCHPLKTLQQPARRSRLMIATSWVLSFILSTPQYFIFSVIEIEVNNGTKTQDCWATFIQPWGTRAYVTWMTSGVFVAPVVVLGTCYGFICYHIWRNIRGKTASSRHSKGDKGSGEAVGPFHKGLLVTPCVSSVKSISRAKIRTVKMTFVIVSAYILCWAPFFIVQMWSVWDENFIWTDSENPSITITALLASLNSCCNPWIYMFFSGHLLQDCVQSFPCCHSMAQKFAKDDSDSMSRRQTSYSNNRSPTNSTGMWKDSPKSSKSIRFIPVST

[2] = target: Vasopressin V1a receptor (Rattus norvegicus) (UniProt P30560); test: Antagonist activity at vasopressin V1a receptor in rat thoracic aorta assessed as inhibition of AVP-induced vascular smooth muscle contraction at 590 uM; assay type: tissue-based
[3] = target: Vasopressin V1a receptor (Rattus norvegicus) (UniProt P30560); test: Antagonist activity at vasopressin V1a receptor in rat thoracic aorta assessed as inhibition of AVP-induced vascular smooth muscle contraction; assay type: tissue-based
[4] = target: Vasopressin V1a receptor (Rattus norvegicus) (UniProt P30560); test: Antagonist activity at vasopressin V1a receptor in rat thoracic aorta assessed as inhibition of AVP-induced vascular smooth muscle contraction at 5.9 uM; assay type: tissue-based
[5] = target: Vasopressin V1a receptor (Rattus norvegicus) (UniProt P30560); test: Antagonist activity at vasopressin V1a receptor in endothelium intact rat thoracic aorta assessed as inhibition of AVP-induced vascular smooth muscle contraction at 10 uM
[6] = target: Vasopressin V1a receptor (Rattus norvegicus) (UniProt P30560); test: Antagonist activity at vasopressin V1a receptor in endothelium-denuded rat thoracic aorta assessed as inhibition of AVP-induced vascular smooth muscle contraction at 10 uM

Cc1ccc(S(=O)(=O)N2CCC(C#N)C(=O)c3ccccc32)cc1 (configuration not stated)
inhibition (Rattus norvegicus): Active | inhibition [1]: 70% | inhibition [2]: Active | inhibition [3]: Dose-dependent effect | inhibition [4]: 25%

COc1ccc(C[C@@H]2NC(=O)CC(C)(C)SSC[C@@H](C(=O)N3CCC[C@H]3C(=O)N[C@@H](CCCN=C(N)N)C(=O)NCC(N)=O)NC(=O)[C@H](CC(N)=O)NC(=O)[C@H](CCC(N)=O)NC(=O)[C@H](Cc3ccccc3)NC2=O)cc1 (Y(Me)FQNCPRG-NH2; linker N-5 via X1)
inhibition [5]: Active | inhibition [6]: Active
